In ChEMBL document CHEMBL3217575, “Design, synthesis and molecular modelling of novel methyl[4-oxo-2-(aroylimino)-3-(substituted phenyl)thiazolidin-5-ylidene]acetates as potent and selective aldose reductase inhibitors” (Medchemcomm, 2012):

Columns and labels:
Bos taurus [1] = species on record: Bos taurus; experiment: Inhibition of purified calf kidney ALR1 at 0.6 mM preincubated for 10 mins by UV spectrophotometry; format: tissue-based
[2] = Inhibition of purified calf eye lens ALR2 preincubated for 10 mins by UV spectrophotometry; format: tissue-based, Bos taurus, Lens of camera-type eye
Bos taurus [3] = species on record: Bos taurus; experiment: Inhibition of purified calf eye lens ALR2 at 0.6 mM preincubated for 10 mins by UV spectrophotometry; format: tissue-based; conditions: Lens of camera-type eye
[4] = Inhibition of purified calf kidney ALR1 preincubated for 10 mins by UV spectrophotometry; format: tissue-based, Bos taurus

IC50 [2] [µM] | Compound | inhibition (Bos taurus [1]) [%] | inhibition (Bos taurus [3]) [%] | IC50 [4] [µM]
6.26 | COC(=O)/C=C1/S/C(=N\C(=O)c2cccc(C)c2)N(c2ccccc2OC)C1=O | 32.4 |  | 
36.1 | COC(=O)/C=C1/S/C(=N\C(=O)c2ccc([N+](=O)[O-])cc2)N(c2ccccc2F)C1=O | 49.5 |  | 
 | COC(=O)/C=C1/S/C(=N\C(=O)c2ccc([N+](=O)[O-])cc2)N(c2ccc(F)c(Cl)c2)C1=O | 38.4 | 47.7 | 
5.21 | COC(=O)/C=C1/S/C(=N\C(=O)c2ccccc2Cl)N(c2ccccc2)C1=O | 19.2 |  | 
2.54 | COC(=O)/C=C1/S/C(=N\C(=O)c2ccccc2Br)N(c2ccc(Cl)cc2Cl)C1=O | 72.7 |  | 
 | COC(=O)/C=C1/S/C(=N\C(=O)c2ccc(C)cc2)N(c2cccc(Cl)c2)C1=O | 43.5 | 44.3 | 
 | CCCC(CCC)C(=O)O [VALPROIC ACID] |  |  | 57.4
12.4 | COC(=O)/C=C1/S/C(=N\C(=O)c2ccc(Cl)cc2)N(c2cccc(Cl)c2Cl)C1=O | 15.3 |  | 
3.19 | COC(=O)/C=C1/S/C(=N\C(=O)c2ccccc2)N(c2cccc3ccccc23)C1=O | 44.3 |  | 
9.42 | COC(=O)/C=C1/S/C(=N\C(=O)c2ccccc2Br)N(c2cccc(Cl)c2Cl)C1=O | 51.4 |  | 
5.12 | COC(=O)/C=C1/S/C(=N\C(=O)c2ccc3ccccc3c2)N(c2ccccc2)C1=O | 49.1 |  | 
 | COC(=O)/C=C1/S/C(=N\C(=O)c2ccccc2C)N(c2cccc(OC)c2)C1=O | 27.8 | 43.8 | 
2.82 | COC(=O)/C=C1/S/C(=N\C(=O)c2ccccc2)N(c2ccccc2OC)C1=O | 41.2 |  | 
4.52 | COC(=O)/C=C1/S/C(=N\C(=O)c2cccc(C)c2)N(c2cccc(Cl)c2)C1=O | 42.6 |  | 
9.75 | COC(=O)/C=C1/S/C(=N\C(=O)c2cccc(C)c2)N(c2ccccc2)C1=O | 31.5 |  | 
3.14 | O=C1NC(=O)[C@@]2(CCOc3ccc(F)cc32)N1 [SORBINIL] |  |  | 
